From patent publication US5670492A, “DC-89 derivatives” (priority 1994, dated 1997)
Read-outs that look alike come from different tables or passages of the source.

Key:
[1] = when used as injections; cited from earlier work
[2] = system: HeLaS3 cells; experiment: Growth Inhibitory Effect Against HeLaS3 cells; type: cell-based
Protocol: HeLaS3 cells were suspended in MEM medium containing 10% calf serum and 2 mM glutamine to a concentration of 2.67×10^4 cells/mi. The cell suspension thus prepared was put into wells of a 24-well culture plate in an amount of 0.75 ml per well. After the cells were incubated in a CO2 incubator overnight at 37° C., Compound (I) which had been appropriately diluted with a culture medium was added to each well in an amount of 0.25 ml.
The cells were further incubated in the CO2 incubator for 72 hours, and the culture supernatant was removed. Then, the cells were dispersed in a solution of trypsin and EDTA and recovered. The number of cells was counted using a cell counter. The concentration (IC50) of Compound (I) at which the growth of the cells is inhibited by 50% was calculated by comparing the number of untreated cells with the number of the cells treated with Compound (I) at known concentrations.

[3] = system: Sarcoma 180 tumor; experiment: Therapeutic Effect Against Sarcoma 180 Tumor; type: in vivo, male ddY-strain mice; conditions: Mus musculus, Sarcoma-180, iv, 168 h, read-out: T/C
Protocol: Five male ddY-strain mice each weighing 18-20 g were used for each group as test animals, and 5×10^5 Sarcoma 180 tumor cells were implanted at the axilla subcutaneously. One day after the implantation, 0.2 ml of a physiological saline containing Compound (I) at the concentration shown in Table 2 was intravenously administered to each mouse. T/C [T: average tumor volume (mm^3) of the group treated with the test compound, C: average tumor volume (mm^3) of the control group (to which […] of a physiological saline was intravenously administered)] was determined seven days after the implantation.

[4] = Test for Solubility in Water; type: physicochemical; conditions: room temperature
Protocol: A sample tube was charged with 0.7 mg of Compound (I), and 30 μl of water were added thereto at room temperature. The mixture was stirred, and the solubility in water was measured. When the compound was not dissolved, 30 μl of water was added thereto successively, and the mixture was stirred. The solubility in water was measured when the compound was dissolved.

[5] = system: ddY-strain male mice; experiment: Acute Toxicity; type: in vivo; conditions: i.v., mortality at 14 days after administration
Protocol: Compound (I) was intravenously administered to ddY-strain male mice each weighing 20±1 g. MLD (minimum lethal dose) was determined by observing the mortality at 14 days after administration.

[6] = system: various bacteria; conditions: cited from earlier work
[7] = system: melanoma B-16; conditions: cited from earlier work

Q: For `COC(=O)c1c(C)[nH]c2c1C13CC1CN(C(=O)/C=C/c1ccc(OC)cc1)C3=CC2=O` (centres unmarked) [(B)], which water-solubility [1] is on record?
A: Its water-solubility is “lack satisfactory water-solubility”.

Q: Which results are given for `COC(=O)c1c(C)[nH]c2c(OC(=O)c3cccnc3)cc3c(c12)C(CBr)CN3C(=O)/C=C/c1ccc(OC)c(N(C)C)c1` (centres unmarked) [Compound 55]?
A: IC50 ([2]; Homo sapiens, HeLa S3, 72 h): 0.43 nM; response vs control in vivo at 1 mg/kg [3]: 28%; solubility [4]: > 18 mg/mL; MLD (minimum lethal dose) [5]: 1.0 mg/kg

Q: Which results are given for `COC(=O)c1c(C)[nH]c2c(OC(=O)NN3CCN(C)CC3)cc3c(c12)C(CBr)CN3C(=O)/C=C/c1ccc(OC)c(N(C)C)c1` (centres unmarked) [Compound 60]?
A: IC50 ([2]; Homo sapiens, HeLa S3, 72 h): 0.94 nM; response vs control in vivo at 4 mg/kg [3]: 15%; solubility [4]: > 20 mg/mL; MLD (minimum lethal dose) [5]: > 8.0 mg/kg

Q: Which IC50 ([2]; Homo sapiens, HeLa S3, 72 hours, read-out: IC50) does the source give for `COC(=O)c1c(C)[nH]c2c(OC(=O)NN(C)C)cc3c(c12)C(CBr)CN3C(=O)/C=C/c1ccc(OC)c(N(C)C)c1` (centres unmarked) [Compound 62] here?
A: Its IC50 is 0.62 nM.

Q: What about the response vs control in vivo at 2 mg/kg ([3]; 2.0 mg/kg, single i.v. one day after s.c. implantation, tumor volume ratio seven days after implantation) of the same compound?
A: Its response vs control in vivo at 2 mg/kg is 19%.

Q: What about the solubility [4] of the same compound?
A: Its solubility is > 20 mg/mL.

Q: What about the “MLD (minimum lethal dose)” value [5] of the same compound?
A: The value was 2.0 mg/kg.

Q: Which results are given for `CNN(C)C(=O)Oc1cc2c(c3c(C(=O)OC)c(C)[nH]c13)C(CBr)CN2C(=O)/C=C/c1ccc(OC)c(N(C)C)c1` (centres unmarked) [Compound 64]?
A: IC50 ([2]; Homo sapiens, HeLa S3, 72 h): 1.1 nM; response vs control in vivo at 1.3 mg/kg [3]: 26%; solubility [4]: > 15 mg/mL; MLD (minimum lethal dose) [5]: 2.0 mg/kg

Q: Which results are given for `COC(=O)c1c(C)[nH]c2c(OC(=O)c3ccc(CN4CCN(C)CC4)cc3)cc3c(c12)C(CBr)CN3C(=O)/C=C/c1ccc(OC)c(N(C)C)c1` (centres unmarked) [Compound 66]?
A: IC50 ([2]; Homo sapiens, HeLa S3, 72 h): 1.1 nM; response vs control in vivo at 2 mg/kg [3]: 21%; solubility [4]: > 20 mg/mL; MLD (minimum lethal dose) [5]: 2.0 mg/kg

Q: Which IC50 ([2]; Homo sapiens, HeLa S3, 72 h) does the source give for `COC(=O)c1c(C)[nH]c2c(OC(=O)NN3CCN(C)CC3)cc3c(c12)C(CCl)CN3C(=O)/C=C/c1cnc(OC)nc1` (centres unmarked) [Compound 69] here?
A: The IC50 was 1.4 nM.

Q: What about the response vs control in vivo at 4 mg/kg [3] of the same compound?
A: Its response vs control in vivo at 4 mg/kg is 40%.

Q: And the solubility [4]?
A: Its solubility is > 10 mg/mL.

Q: What about the “MLD (minimum lethal dose)” value [5] of the same compound?
A: The value was 4.0 mg/kg.

Q: With `COC(=O)c1c(C)[nH]c2c(OC(=O)NN3CCN(C)CC3)cc3c(c12)C(CBr)CN3C(=O)/C=C/c1cnc(OC)nc1` (centres unmarked) [Compound 72] as the compound, how does the IC50 ([2]; 72 hours) read?
A: Its IC50 is 1.6 nM.

Q: What about the response vs control in vivo at 4 mg/kg [3] of the same compound?
A: The response vs control in vivo at 4 mg/kg was 15%.

Q: What about the Solubility in water [4] of the same compound?
A: The Solubility in water was > 10 mg/mL.

Q: What about the “MLD (minimum lethal dose)” value [5] of the same compound?
A: Its value is 4.0 mg/kg.

Q: What does the source list for `COC(=O)c1cc2c([nH]1)C(=O)C=C1N(C(=O)c3cc4cc(OC)c(OC)c(OC)c4[nH]3)CC3CC123` (centres unmarked) [DC113]?
A: antibacterial activity [6]: antibacterial activity against various bacteria; antitumor activity [7]: anti-tumor activity against melanoma B-16

Q: Which antibacterial activity [6] does the source give for `COC(=O)C1(C)NC2=C(C1=O)C13CC1CN(C(=O)c1cc4cc(OC)c(OC)c(OC)c4[nH]1)C3=CC2=O` (centres unmarked) [DC-88A] here?
A: The antibacterial activity was “antibacterial activity against various bacteria”.

Q: And the antitumor activity [7]?
A: The antitumor activity was “anti-tumor activity against melanoma B-16”.

Q: For `COC(=O)C1(C)Nc2c(O)cc3c(c2C1=O)CC(Cl)CN3C(=O)c1cc2cc(OC)c(OC)c(OC)c2[nH]1` (centres unmarked) [DC-89A1], which antibacterial activity [6] is on record?
A: The antibacterial activity was “antibacterial activity against various bacteria”.

Q: And the antitumor activity [7]?
A: The antitumor activity was “antitumor activity against melanoma B-16”.

Q: For `COC(=O)C1(C)Nc2c(O)cc3c(c2C1=O)C(CCl)CN3C(=O)c1cc2cc(OC)c(OC)c(OC)c2[nH]1` (centres unmarked) [DC-89A2], which antibacterial activity [6] is on record?
A: The antibacterial activity was “antibacterial activity against various bacteria”.

Q: And the antitumor activity [7]?
A: Its antitumor activity is “antitumor activity against melanoma B-16”.

Q: For `COC(=O)C1(C)Nc2c(O)cc3c(c2C1=O)CC(Br)CN3C(=O)c1cc2cc(OC)c(OC)c(OC)c2[nH]1` (centres unmarked) [DC-89B1], which antibacterial activity [6] is on record?
A: The antibacterial activity was “antibacterial activity against various bacteria”.

Q: What about the antitumor activity [7] of the same compound?
A: The antitumor activity was “antitumor activity against melanoma B-16”.

Q: With `COC(=O)C1(C)Nc2c(O)cc3c(c2C1=O)C(CBr)CN3C(=O)c1cc2cc(OC)c(OC)c(OC)c2[nH]1` (centres unmarked) [DC-89B2] as the compound, how does the antibacterial activity [6] read?
A: Its antibacterial activity is “antibacterial activity against various bacteria”.

Q: What about the antitumor activity [7] of the same compound?
A: The antitumor activity was “antitumor activity against melanoma B-16”.
